# Tested on: rats in which OA was induced
# Test: Intra-articular injection in rats with surgically induced (ACLT + MM) degenerative arthritis; histology, immunohistochemistry, OARSI and Mankin scoring
# Assay type: in vivo, Sprague Dawley rats
# Conditions: IA injection twice at 7th and 10th week after surgery, sacrificed 8th week after first injection
# Description: Animal experiments were performed with the approval of the animal experiment ethics committee by using 9-week old male Sprague Dawley rats (Orient Inc., Seoul, Korea). Degenerative arthritis (osteoarthritis; OA) was induced by performing anterior cruciate ligament transection (ACLT) and medial meniscectomy (MM) on the rats, and the rats were allowed to exercise on a treadmill for 20 minutes every day from two weeks after the surgery.
# In the Examples of the present invention, technical statistics were used in order to determine the group average and standard deviation. […]
# The rats were sacrificed at 8th week after the first IA injection, the knee joints were dissected and fixed with 10% paraformaldehyde (at 4° C. for 1 day), and then calcareous materials were removed with a Lite decalcifying solution (Sigma-Aldrich), and after the resulting knee joints were embedded in a Tissue-Tek OCT compound (Sakura Finetek, Torrance, Calif., USA) or paraffin wax, and then the paraffin wax fragment was stained with Safranin-O (4% w/v) and Fast Green (0.1% w/w). The degenerative state was evaluated by using an Osteoarthritis Research Society International (OARSI) cartilage Histopathology Assessment System and a Mankin evaluation system, and the fragments were analyzed through immunohistochemistry for COL2 and aggrecan. […]
compound,measurement,value
"O=C(O)c1ccccc1C(=O)Nc1ccc(-c2ccccc2)cc1 [KGN, kartogenin]",cartilage histology (Safranin-O staining),loss of cartilage due to matrix vertical cracks and surface layer exfoliation
